Experimental data published in PubChem BioAssay AID248 (DTP/NCI, 2004).
Values joined by “and” are separate entries in the source; they are usually repeats but may differ in a detail not shown here. Identical values can stand only once. Inconclusive results and toxic doses are left out. Rule as the data show it: active = T/C of 150% or more; inactive = T/C below 125%.

Test system: L1210 leukemia ip in BDF1 mice, survival T/C
Assay: NCI In Vivo Anticancer Drug Screen. Data for tumor model L1210 Leukemia (intraperitoneal) in B6D2F1 (BDF1) mice
Details: endpoint: mean survival time, higher = longer survival
How it was run: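 Mice bearing the transplanted tumor received compound or vehicle. Survival of the treated group was divided by that of the vehicle-treated control group to give the ratio.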

[1] = dose: 50.0 mg/kg/injection, schedule: Q01DX009 (ip), vehicle: Klucel (hydroxypropylcellulose) (HPC)
[2] = dose: 100.0 mg/kg/injection, schedule: Q01DX009 (ip), vehicle: Klucel (hydroxypropylcellulose) (HPC)
[3] = dose: 100.0 mg/kg/injection, schedule: Q04DX003 (ip), vehicle: Klucel (hydroxypropylcellulose) (HPC)
[4] = dose: 200.0 mg/kg/injection, schedule: Q04DX003 (ip), vehicle: Klucel (hydroxypropylcellulose) (HPC)
[5] = dose: 200.0 mg/kg/injection, schedule: Q01DX009 (ip), vehicle: Klucel (hydroxypropylcellulose) (HPC)
[6] = dose: 400.0 mg/kg/injection, schedule: Q01DX009 (ip), vehicle: Klucel (hydroxypropylcellulose) (HPC)
[7] = dose: 400.0 mg/kg/injection, schedule: Q04DX003 (ip), vehicle: Klucel (hydroxypropylcellulose) (HPC)
[8] = dose: 100.0 mg/kg/injection, schedule: Q01DX001 (ip), vehicle: saline
[9] = dose: 200.0 mg/kg/injection, schedule: Q01DX001 (ip), vehicle: saline

Measured: T/C

CC(=O)[C@H]1CC[C@H]2[C@@H]3CCC4=CC(=O)[C@H](C)C[C@]4(C)[C@@]3(F)C(=O)C[C@]12C
inactive: dose: 15.0 mg/kg/injection, schedule: Q01DX Z (sc), vehicle: steriod suspending solution 98 % of control | dose: 30.0 mg/kg/injection, schedule: Q01DX Z (sc), vehicle: steriod suspending solution 96 % of control | dose: 60.0 mg/kg/injection, schedule: Q01DX Z (sc), vehicle: steriod suspending solution 101 % of control and 113 % of control | dose: 100.0 mg/kg/injection, schedule: Q01DX009 (sc), vehicle: steriod suspending solution 116 % of control | dose: 100.0 mg/kg/injection, schedule: Q04DX003 (sc), vehicle: steriod suspending solution 98 % of control | dose: 120.0 mg/kg/injection, schedule: Q01DX Z (sc), vehicle: steriod suspending solution 105 % of control | dose: 200.0 mg/kg/injection, schedule: Q01DX009 (sc), vehicle: steriod suspending solution 110 % of control | dose: 200.0 mg/kg/injection, schedule: Q04DX003 (sc), vehicle: steriod suspending solution 98 % of control | dose: 240.0 mg/kg/injection, schedule: Q01DX Z (sc), vehicle: steriod suspending solution 103 % of control | dose: 400.0 mg/kg/injection, schedule: Q01DX009 (sc), vehicle: steriod suspending solution 111 % of control | dose: 400.0 mg/kg/injection, schedule: Q04DX003 (sc), vehicle: steriod suspending solution 98 % of control

C/C(CC(O)(C(F)(F)F)C(F)(F)F)=N\Nc1ccccc1
inactive: dose: 100.0 mg/kg/injection, schedule: Q04DX003 (ip), vehicle: other 102 % of control | dose: 200.0 mg/kg/injection, schedule: Q04DX003 (ip), vehicle: other 97 % of control | dose: 400.0 mg/kg/injection, schedule: Q04DX003 (ip), vehicle: other 106 % of control

c1ccc2c(c1)C1c3ccccc3C2C2COCC12 (centres undefined)
inactive: [1] 113 % of control | [2] 108 % of control | [3] 98 % of control | [4] 100 % of control

CC(=O)C1CCCCC1
inactive: dose: 100.0 mg/kg/injection, schedule: Q04DX003 (ip), vehicle: saline with Tween-80 107 % of control | dose: 200.0 mg/kg/injection, schedule: Q04DX003 (ip), vehicle: saline with Tween-80 109 % of control | dose: 400.0 mg/kg/injection, schedule: Q04DX003 (ip), vehicle: saline with Tween-80 96 % of control

O=C(Cc1ccc([N+](=O)[O-])cc1)c1ccccc1
inactive: dose: 100.0 mg/kg/injection, schedule: Q01DX001 (ip), vehicle: Klucel (hydroxypropylcellulose) (HPC) 95 % of control | [2] 102 % of control | dose: 100.0 mg/kg/injection, schedule: Q01DX009 (ip), vehicle: saline 108 % of control | [3] 97 % of control | dose: 200.0 mg/kg/injection, schedule: Q01DX001 (ip), vehicle: Klucel (hydroxypropylcellulose) (HPC) 88 % of control | [5] 103 % of control | dose: 200.0 mg/kg/injection, schedule: Q01DX009 (ip), vehicle: saline 102 % of control | [4] 97 % of control | dose: 400.0 mg/kg/injection, schedule: Q01DX001 (ip), vehicle: Klucel (hydroxypropylcellulose) (HPC) 90 % of control | [6] 94 % of control | dose: 400.0 mg/kg/injection, schedule: Q01DX009 (ip), vehicle: saline 97 % of control | [7] 101 % of control

CN(C)c1ccc(/C(=N\O)C(=O)O)cc1
inactive: dose: 50.0 mg/kg/injection, schedule: Q01DX001 (ip), vehicle: saline 107 % of control | [8] 105 % of control | [9] 100 % of control

O=C1c2ccccc2C(=O)C1(Br)C(Cl)c1ccccc1 (centres undefined)
inactive: [2] 95 % of control | [3] 96 % of control | [5] 101 % of control | [4] 103 % of control | [6] 97 % of control | [7] 97 % of control

O=S(=O)(F)c1ccc(C[P+](c2ccccc2)(c2ccccc2)c2ccccc2)cc1Cl
inactive: dose: 12.5 mg/kg/injection, schedule: Q01DX001 (ip), vehicle: carboxymethylcellulose (CMC) 103 % of control | dose: 12.5 mg/kg/injection, schedule: Q01DX009 (ip), vehicle: carboxymethylcellulose (CMC) 113 % of control and 117 % of control | dose: 12.5 mg/kg/injection, schedule: Q04DX002 (ip), vehicle: carboxymethylcellulose (CMC) 97 % of control and 100 % of control | dose: 25.0 mg/kg/injection, schedule: Q01DX001 (ip), vehicle: carboxymethylcellulose (CMC) 99 % of control | dose: 25.0 mg/kg/injection, schedule: Q01DX009 (ip), vehicle: carboxymethylcellulose (CMC) 97 % of control and 98 % of control | dose: 25.0 mg/kg/injection, schedule: Q04DX002 (ip), vehicle: carboxymethylcellulose (CMC) 100 % of control and 103 % of control | dose: 25.0 mg/kg/injection, schedule: Q04DX003 (ip), vehicle: carboxymethylcellulose (CMC) 96 % of control and 102 % of control | dose: 50.0 mg/kg/injection, schedule: Q01DX001 (ip), vehicle: carboxymethylcellulose (CMC) 99 % of control and 101 % of control and 107 % of control | dose: 50.0 mg/kg/injection, schedule: Q01DX009 (ip), vehicle: carboxymethylcellulose (CMC) 98 % of control and 103 % of control | dose: 50.0 mg/kg/injection, schedule: Q04DX002 (ip), vehicle: carboxymethylcellulose (CMC) 100 % of control and 110 % of control | dose: 50.0 mg/kg/injection, schedule: Q04DX003 (ip), vehicle: carboxymethylcellulose (CMC) 102 % of control and 105 % of control | dose: 100.0 mg/kg/injection, schedule: Q04DX002 (ip), vehicle: carboxymethylcellulose (CMC) 101 % of control and 91 % of control | dose: 100.0 mg/kg/injection, schedule: Q04DX003 (ip), vehicle: carboxymethylcellulose (CMC) 102 % of control and 104 % of control

O=C1NCC(O)CN1
inactive: dose: 29.0 mg/kg/injection, schedule: Q01DX Z (ip), vehicle: methylcellulose (MC) 96 % of control | dose: 45.0 mg/kg/injection, schedule: Q01DX Z (ip), vehicle: methylcellulose (MC) 96 % of control | dose: 67.0 mg/kg/injection, schedule: Q01DX Z (ip), vehicle: methylcellulose (MC) 108 % of control | dose: 100.0 mg/kg/injection, schedule: Q01DX Z (ip), vehicle: methylcellulose (MC) 104 % of control

Cc1n[nH]c(=S)n1NC=O
inactive: [8] 94 % of control | [9] 94 % of control | dose: 400.0 mg/kg/injection, schedule: Q01DX001 (ip), vehicle: saline 90 % of control

O=S(=O)(C(Cl)(Cl)Cl)C(Cl)(Cl)Cl
inactive: dose: 25.0 mg/kg/injection, schedule: Q01DX009 (ip), vehicle: Klucel (hydroxypropylcellulose) (HPC) 95 % of control | [1] 98 % of control | [2] 93 % of control

CCOC=NC1=C(C#N)CN(Cc2ccccc2)CC1
inactive: dose: 100.0 mg/kg/injection, schedule: Q04DX002 (ip), vehicle: Klucel (hydroxypropylcellulose) (HPC) 93 % of control | dose: 200.0 mg/kg/injection, schedule: Q04DX002 (ip), vehicle: Klucel (hydroxypropylcellulose) (HPC) 93 % of control | dose: 400.0 mg/kg/injection, schedule: Q04DX002 (ip), vehicle: Klucel (hydroxypropylcellulose) (HPC) 90 % of control

c1ccc(/C(N=NC(c2ccccc2)(c2ccccc2)c2ccccc2)=C(/N=NC(c2ccccc2)(c2ccccc2)c2ccccc2)c2ccccc2)cc1
inactive: dose: 100.0 mg/kg/injection, schedule: Q01DX009 (ip), vehicle: saline sonified 94 % of control | dose: 200.0 mg/kg/injection, schedule: Q01DX009 (ip), vehicle: saline sonified 97 % of control | dose: 400.0 mg/kg/injection, schedule: Q01DX009 (ip), vehicle: saline sonified 94 % of control

COc1ccc(C(O)c2nnc(-c3ccccc3)nn2)cc1 (centres undefined)
inactive: dose: 100.0 mg/kg/injection, schedule: Q01DX001 (ip), vehicle: gum acacia 90 % of control | dose: 200.0 mg/kg/injection, schedule: Q01DX001 (ip), vehicle: gum acacia 120 % of control | dose: 400.0 mg/kg/injection, schedule: Q01DX001 (ip), vehicle: gum acacia 107 % of control
